Read-outs that look alike come from different tables or passages of the source.
How the values were obtained:
Jeko-1 [1] = assay: mantle cell lymphoma 7 day co-treatment model; assay type: cell-based
U266 [2] = system: U266
Experimental: (§1) Assay plates were developed for endpoint analysis using Cell Titer Glo to measure ATP content, which was used as an indicator of cell viability. DMSO concentration was kept constant throughout the assay at less than 0.2% v/v.
(§2) Cell lines: The cell lines MI1.S and U266B1 were obtained from American Type Culture Collection (ATCC; Rockville, MD). […] All cells were maintained as instructed by the supplier and cultures were maintained at 37° C. in a humidified atmosphere and 5% CO2.
(§3) Loewe volumes greater than 1 denoted synergy and volumes <−1 denoted antagonism.

L-363 [3] = system: L-363
Experimental: as §1, §2, §3

MOLP-8 [4] = assay: 7-day co-treatment combination model (Cell Titer Glo); conditions: second agent + tazemetostat
Experimental: as §1
(§4) All cells were maintained as instructed by the supplier and cultures were maintained at 37° C. in a humidified atmosphere and 5% CO2.
as §3

LP-1 [5] = assay: as above
Experimental: as §1, §4, §3

KMS-28-BM [6] = assay: as above
Experimental: as §1, §4, §3

MM1.S [7] = assay: as above; conditions: Homo sapiens, 168 h, read-out: 7-day IC50
Experimental: as §1, §2, §3

RPMI-8226 = assay: as above; conditions: second agent + tazemetostat, 7 day co-treatment
Experimental: as §1, §2, §3

U266 [8] = assay: 7 day pretreatment + 4-day co-treatment combination model (Cell Titer Glo)
Text: as §1
(§5) Cell lines: The cell lines MI1.S and U266B1 were obtained from American Type Culture Collection (ATCC; Rockville, MD). The cell lines LP-1, L-363 were obtained from Deutsche Sammlung von Mikroorganismen and Zellkulturen (DSMZ; Braunschweig, Germany) and the cell line KMS-28BM was obtained from Japanese Collection of Research Bioresources Cell Bank (JCRB, Osaka Japan). All cells were maintained as instructed by the supplier and cultures were maintained at 37° C. in a humidified atmosphere and 5% CO2.
as §3

MOLP-8 [9] = assay: as above; conditions: second agent + tazemetostat, MOLP-8 t(11;14)
Experimental: as §1, §4, §3

LP-1 [10] = assay: as above
Text: as §1, §5, §3

KMS-28-BM [11] = assay: as above
Experimental: as §1, §4, §3

L-363 [12] = assay: as above
MM1.S [13] = assay: as above; conditions: Homo sapiens, MM1.S, 96 h, read-out: 4-day IC50
Jeko-1 [14] = assay: mantle cell lymphoma 7 day pretreatment + 4-day co-treatment model (Cell Titer Glo)
Text: Cells were then co-treated in triplicate with a second compound, 3-fold serially diluted for additional 4 days. After this time, plates were developed for endpoint analysis using Cell Titer Glo to measure ATP content, which is used as an indicator of cell viability.
A Loewe volume greater than 1 denoted synergy. A Loewe volume between −1 and 1 denoted additivity, and a negative Loewe volume of less than −1, denoted antagonism.

[15] = second agent + tazemetostat, 7 day co-treatment
[16] = second agent + tazemetostat, 7 day pretreatment + 4-day co-treatment, Jeko-1

IC50 (Jeko-1 [1]; Homo sapiens, 168 h, second agent alone, 7 day co-treatment model): 780 nM
IC50 (U266 [2]): > 10000 nM
IC50 (L-363 [3]): 3.5 nM
IC50 (MM1.S [7]): 7 nM
IC50 (U266 [8]; Homo sapiens, U-266, 96 h, read-out: 4-day IC50): > 10000 nM
IC50 (MM1.S [13]): 12 nM
IC50 (Jeko-1 [14]; Homo sapiens, JeKo-1, 96 h, read-out: Second agent IC50): > 10000 nM
Structure (SMILES): C[C@@H]1C[C@H]2[C@@H]3CCC4=CC(=O)C=C[C@]4(C)[C@@]3(F)[C@@H](O)C[C@]2(C)[C@@]1(O)C(=O)CO [Dexamethasone, dexamethasone]
Best CI (Jeko-1 [1]; [15]): 0.16
Bliss Volume (Jeko-1 [1]; [15]): 2.96
HSA Volume (Jeko-1 [1]; [15]): 5.19
Loewe Volume (Jeko-1 [1]; [15]): 4.32
Synergy Score (Jeko-1 [1]; [15]): 4.36
combinatorial effect by Loewe volumes (MOLP-8 [4]; 7-day co-treatment, MOLP-8 t(11;14)): S (Synergy)
Loewe volume (MOLP-8 [4]; 7 day co-treatment, MOLP-8): 3.61
IC50 (LP-1 [5]; Homo sapiens, LP-1, 168 h, read-out: 7-day IC50): 5 nM
combinatorial effect by Loewe volumes (LP-1 [5]; second agent + tazemetostat, 7-day co-treatment, LP-1 t(4;14)): S (Synergy)
Loewe volume (LP-1 [5]; second agent + tazemetostat, 7 day co-treatment, LP-1): 4.79
IC50 (KMS-28-BM [6]; KMS-28BM, 168 h, read-out: 7-day IC50): 2.7 nM
combinatorial effect by Loewe volumes (KMS-28-BM [6]; second agent + tazemetostat, 7-day co-treatment, KMS-28-BM t(4;14)): S (Synergy)
Loewe volume (KMS-28-BM [6]; second agent + tazemetostat, 7 day co-treatment, KMS-28-BM): 4.34
Loewe volume (RPMI-8226): 1.73
combinatorial effect by Loewe volumes (U266 [8]; second agent + tazemetostat, 7 day pretreatment + 4-day co-treatment, U266 t(11;14)): A (Additive)
combinatorial effect by Loewe volumes (MOLP-8 [9]): S (Synergy)
IC50 (LP-1 [10]; Homo sapiens, LP-1, 96 h, read-out: 4-day IC50): 4 nM
combinatorial effect by Loewe volumes (LP-1 [10]; second agent + tazemetostat, 7 day pretreatment + 4-day co-treatment, LP-1 t(4;14)): S (Synergy)
IC50 (KMS-28-BM [11]; KMS-28BM, 96 h, read-out: 4-day IC50): 6 nM
Loewe volume (KMS-28-BM [11]; second agent + tazemetostat, 7 day pretreatment + 4-day co-treatment, KMS-28-BM): 2.45
combinatorial effect by Loewe volumes (KMS-28-BM [11]; second agent + tazemetostat, 7 day pretreatment + 4-day co-treatment, KMS-28-BM t(4;14)): S (Synergy)
IC50 (L-363 [12]; Homo sapiens, L-363, 96 h, read-out: 4-day IC50): 7 nM
combinatorial effect by Loewe volumes (L-363 [12]; second agent + tazemetostat, 7 day pretreatment + 4-day co-treatment, L-363 t(20;22)): A (Additive)
Best CI (Jeko-1 [14]; [16]): 0.22
Bliss Volume (Jeko-1 [14]; [16]): 4.48
HSA Volume (Jeko-1 [14]; [16]): 7.04
Loewe Volume (Jeko-1 [14]; [16]): 6.91
Synergy Score (Jeko-1 [14]; [16]): 6.33
